Here are results for six molecules from article PMC7690921, “Synthesis and Biological Evaluation of Analogues of Butyrolactone I as PTP1B Inhibitors” (Marine Drugs, 2020).

Molecules are shown by their SMILES.

In series [1] the target is T1, PTP1B (Homo sapiens, UniProt P18031).
T1 sequence (P18031 1-435): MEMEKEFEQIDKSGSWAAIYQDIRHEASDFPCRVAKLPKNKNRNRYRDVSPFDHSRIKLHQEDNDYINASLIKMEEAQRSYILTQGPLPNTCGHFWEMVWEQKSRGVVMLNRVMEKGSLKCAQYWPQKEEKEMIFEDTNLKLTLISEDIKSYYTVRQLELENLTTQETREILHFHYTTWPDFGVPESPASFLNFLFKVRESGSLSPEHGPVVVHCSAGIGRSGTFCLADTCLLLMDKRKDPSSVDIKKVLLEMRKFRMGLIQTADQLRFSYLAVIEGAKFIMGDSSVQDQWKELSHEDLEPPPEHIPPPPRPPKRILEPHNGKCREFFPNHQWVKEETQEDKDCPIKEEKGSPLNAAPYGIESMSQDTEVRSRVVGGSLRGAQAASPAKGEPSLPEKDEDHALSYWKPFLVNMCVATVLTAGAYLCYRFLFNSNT
Put plainly: PTP1B inhibitory assay (pNPP substrate). To be noted: for IC50: pNPP 1 mM, 37 °C, Mean ± SD (n = 4), read-out: IC50 against PTP1B. The series is classed as biochemical. As for the experimental part:
The tested compounds at designated concentrations were solubilized in DMSO, and 2 μL samples was added to 96-well clear polystyrene plate. […] Then, 78 μL of an assay buffer (25 mM Hepes, 150 mM sodium chloride (NaCl), 0.1% bovine serum albumin (BSA), 3 mM dithiothreitol, 1 mM ethylenediaminetetraacetic acid) and 10 μL of the PTP1B (10 μg/mL) was added and incubated for 10 min at 37 °C. The screening was initiated by adding 10 μL p-nitrophenyl phosphate (pNPP), and the catalysis of pNPP (1 mM) was continuously monitored on SpectraMax 340 microplate reader (Molecular Devices, Sunnyvale, CA, USA) at 405 nm for 20 min at 37 °C. The slope of the linear portion of the kinetic curve generated from each well was used to determine the activity of PTP1B. The inhibition effect of the compound was represented by the percentage of the slope of the linear portion of its kinetic curve relative to that of the negative control (DMSO). The IC50 was calculated with Prism 8 software (Graphpad, San Diego, CA, USA) from the non-linear curve fitting of the percentage of inhibition (%inhibition) versus the inhibitor concentration [I] by using the following equation: %Inhibition = 100/(1 + [IC50/[I]] ^k), where k is the Hill coefficient.

Series [2] deals with IR HepG2 cells. Put plainly: Glucose consumed in insulin resistance model of HepG2 cells. The class given is cell-based. To be noted: high glucose and high insulin stimulated HepG2; 24 h treatment. As for the experimental part:
HepG2 cells (Cell Bank of Chinese Academy of Sciences, Shanghai, China) were seeded in 96-well plates in normal Dulbecco’s Modified Eagle’ Medium (DMEM, 5.6 mM glucose) supplemented with 10% fetal bovine serum (FBS). The density of the cells in each plate was 1 × 10^4 cells/mL. The original medium was removed when the cells became adherent. For the control group, the medium was replaced with […]. The model of insulin resistance was established by stimulation with high glucose DMEM (30 mM glucose) with 10^−7 mol/L insulin for 48 h. Then, the cells were treated with drug-free or drug-containing DMEM (5.6 mM glucose) containing 0.2% BSA and […] 1 × 10^−9 mol/L insulin for 24 h. Glucose consumption was detected with the glucose oxidase method using a glucose assay kit (Cat#BC2500, Solarbio, Beijing, China).

For series [3], the system named is RIN-m5f cell line. Put plainly: Cell proliferation assay (CCK-8), RIN-m5f. The series is classed as cell-based. To be noted: CCK-8, 48 h. As for the experimental part: The cytotoxic effect of the synthesized butenolides on RIN-m5f (CRL-11605, American Type Culture Collection, Manassas, VA, USA) and HepG2 cells was determined with a Cell Counting Kit 8 (CCK-8) kit (Dojindo, Tokyo, Japan). Cells were seeded into 96-well plates in DMEM with 10% FBS in a volume of 100 µL per well and cultured overnight at 37 °C. The density of the cells in each plate was 1 × 10^4 cells/mL. According to the manufacturer’s protocol, after treatment with DMSO or varying concentrations of BLs for 48 h, 10 µL of CCK-8 solution was added to each well and cells were incubated for 2 h at 37 °C. Measure the absorbance at 450 nm of each well on a SpectraMax 340 microplate reader.

On the set-up of series [4]: method as in doi:10.1007/s00044-013-0659-4. To be noted: read-out: IC50 antioxidant activities; cited from earlier work.
The target in series [5] is α-glucosidase. Also noted: method as in earlier work. To be noted: cited from earlier work.

Usually IC50 stands for the concentration that gives 50% inhibition. On to `COC(=O)C1(c2ccc(OCc3ccccc3)cc2)OC(=O)C(O)=C1c1ccc(O)cc1` (stereo not drawn) [BL-4], for which, in series [1], the “PTP1B inhibitory activity (in words)” value is “strong PTP1B inhibitory activity” and the IC50 is 28.5 µM.
In the case of `O=C1OC(Cc2ccc(OCc3ccccc3)cc2)C(c2ccc(O)cc2)=C1O` (stereo not drawn) [BL-5], the “PTP1B inhibitory activity (in words)” value in series [1] is listed as “strong PTP1B inhibitory activity”. The “hypoglycemic effect (glucose consumed / glucose uptake) in IR HepG2 cells” value in series [2] was “significant hypoglycemic effect”. Besides, the “cytotoxicity to RIN-m5f cell line (proliferation)” value (“cytotoxicity to RIN-m5f cell line” below) in series [3] was “did not affect the proliferation”.
For `CC(C)=CCc1cc(C2OC(=O)C(O)=C2c2ccc(O)cc2)ccc1O` (stereo not drawn) [BL-2], in series [1], the IC50 is 133 µM.
On to `COC(=O)[C@]1(Cc2ccc(O)c(CC=C(C)C)c2)OC(=O)C(O)=C1c1ccc(O)cc1` [Butyrolactone I], for which the values for the IC50 in series [4] and in series [5] were 51.4 µM and 52.2 µM, respectively.
On to `CC(C)=CCc1cc(C2OC(=O)C(O)=C2c2ccc(O)cc2)ccc1OCc1ccccc1` (stereo not drawn) [BL-3], for which, in series [1], the “PTP1B inhibitory activity (in words)” value was “strong PTP1B inhibitory activity”. Further, in series [2], the “hypoglycemic effect (glucose consumed / glucose uptake) in IR HepG2 cells” value is “significant hypoglycemic effect”. Further, the “cytotoxicity to RIN-m5f cell line” value in series [3] was “did not affect the proliferation”.
In the case of `CC(C)=CCc1cc(CC2OC(=O)C(O)=C2c2ccc(O)cc2)ccc1OCc1ccccc1` (stereo not drawn) [BL-6], in series [1], the “PTP1B inhibitory activity (in words)” value is listed as “strong PTP1B inhibitory activity” and the IC50 was 17.2 µM. Also, in series [2], the “hypoglycemic effect (glucose consumed / glucose uptake) in IR HepG2 cells” value is “did not improve the glucose uptake”. Further, in series [3], the “cytotoxicity to RIN-m5f cell line” value is given as “significant cytotoxicity”.
